Laboratory results taken from patent US8349837B2, “Pharmaceutical composition comprising racemic aminopterin” (Aminopterin, LLC, priority 2009, dated 2013).

Test: Pharmacokinetics and oral absorption in Beagle dogs
Conditions: for Mean Plasma D-isomer: Beagle dogs N=10, oral capsule by gastric placement, 1 mg D-isomer
Method: Ten (N=10) Beagle dogs were enrolled in a pharmacokinetic study to examine the oral absorption of 1 tablet of the pure L-isomer tablet formulation (batch 116I0604), 1 mg of the D-isomer admixed with 99 mg microcrystalline cellulose, and 4 tablets of the racemic tablet formulation (batch 157I0907). Each formulation was encapsulated in a hard gelatin capsule and administered by direct gastric placement. Dosing of each formulation was separated by a 7 day washout period. The mean body weight of the ten dogs was 11.3±1.7 (SD) kilograms.
For pharmacokinetic analysis, venous blood samples with EDTA as anticoagulant were taken before each dosing and at 0.5, 1, 1.5, 2, 3, 6, 9 and 12 hours after each dosing. Samples were centrifuged, and the plasma collected and frozen for analysis. There was no urine sampling in this study. Aminopterin in plasma samples was quantitated by an achiral LC/MS assay (Advion Biosciences, Ithaca, N.Y.). The lower limit of quantitation (LLOQ) of the assay was 0.5 ng/ml or 1.2 nM. The amount of L-isomer and D-isomer in plasma samples from animals dosed with the racemate was determined using a chiral LC/MS assay.

[1] = Beagle dogs, oral, isomers given separately

Row | Compound | Mean Plasma D-isomer (collection time 0.0 hr (before dosing)) | Mean Plasma D-isomer (collection time 0.5 hr) | Mean Plasma D-isomer (collection time 1.0 hr) | Mean Plasma D-isomer (collection time 1.5 hr) | Mean Plasma D-isomer (collection time 2.0 hr) | Mean Plasma D-isomer (collection time 3.0 hr) | Mean Plasma D-isomer (collection time 6.0 hr) | Mean Plasma D-isomer (collection time 9.0 hr) | Mean Plasma D-isomer (collection time 12.0 hr) | oral absorption when given separately [1] | systemic exposure relative to that of the L-isomer (AUC ratio) [1]
1 | Nc1nc(N)c2nc(CNc3ccc(C(=O)N[C@H](CCC(=O)O)C(=O)O)cc3)cnc2n1 (single isomer, unassigned) [D-isomer] | 0.0000 µM | 0.0050 µM | 0.0117 µM | 0.0150 µM | 0.0152 µM | 0.0106 µM | 0.0034 µM | 0.0023 µM | 0.0026 µM | efficiently absorbed | approximately 30%
2 | Nc1nc(N)c2nc(CNc3ccc(C(=O)N[C@@H](CCC(=O)O)C(=O)O)cc3)cnc2n1 [L-isomer] | – | – | – | – | – | – | – | – | – | efficiently absorbed | –
